In ChEMBL document CHEMBL3351855, “Synthesis and biological evaluation of (-)-6-O-desmethylcryptopleurine and analogs” (Bioorg Med Chem Lett, 2015):

Columns and labels:
Format in all cases: functional, cell-based
A549 = experiment: Antiproliferative activity against human A549 cells after 72 hrs by ATPlite assay; conditions: A549, 72 h
A-375 = experiment: Antiproliferative activity against human A375 cells after 72 hrs by ATPlite assay; conditions: A-375, 72 h
[1] = Antiproliferative activity against human HCT116 cells after 72 hrs by ATPlite assay; conditions: HCT-116, 72 h
[2] = Antiproliferative activity against human NAMALWA cells after 72 hrs by ATPlite assay; conditions: NAMALVA

IC50 (A549) [nM] | IC50 (A-375) [nM] | SMILES | IC50 [1] [nM] | IC50 [2] [nM]
2.5 | 1.6 | COc1cc2c3c(c4ccc(O)cc4c2cc1OC)CN1CCCC[C@@H]1C3 | 1.4 | 4.1
65 | 56 | COc1cc2c3c(c4ccc(O)cc4c2cc1OC)CN1CCCC[C@@H]1C3=O | 21 | 60
1.4 | 0.3 | COc1cc2c3c(c4ccc(O)cc4c2cc1OC)CN1CCCC[C@@H]1[C@@H]3O | 0.3 | 1.1

More lines, now with the values behind:

SMILES | IC50 (A549) [nM] | IC50 (A-375) [nM] | IC50 [1] [nM] | IC50 [2] [nM]
COc1cc2c3c(c4ccc(O)cc4c2cc1OC)CN1CCC[C@@H]1C3 | 1 | – | – | –
COc1ccc2c3c(c4cc(OC)c(OC)cc4c2c1)C[C@H]1CCCN1C3 [(-)-ANTOFINE] | 10 | – | – | –
COc1ccc2c3c(c4cc(OC)c(OC)cc4c2c1)C[C@H]1CCCCN1C3 [CRYPTOPLEURINE] | – | 1.2 | 0.7 | 2.6
